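Dose response: 5 concentrations. Exposure: 48 h. Format: 96-well plates. Endpoint: linear interpolation; highest concentration if not reached. GI50: concentration for 50% inhibition of growth.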 Active and inactive are the calls of the source. Cut-off read from the data, not from the text of the source: active = GI50 up to about 1.1 µM and inactive = higher.
Assays:
Assay in all cases: NCI tumour cell line growth inhibition, 48 h
M14 = test system: M14
SNB-75 = test system: SNB-75
SR = test system: SR
HOP-62 = test system: HOP-62
DLD-1 = test system: DLD-1
KM12 = test system: KM12
NCI-H226 = test system: NCI-H226
DMS-273 = test system: DMS-273
NCI-H522 = test system: NCI-H522
ACHN = test system: ACHN
Malme-3M = test system: Malme-3M
HOP-92 = test system: HOP-92
MCF7 = test system: MCF7
NCI/ADR-RES = test system: NCI/ADR-RES
786-0 = test system: 786-0
PC-3 = test system: PC-3
MDA-MB-231 = test system: MDA-MB-231
MDA-N = test system: MDA-N
T47D = test system: T47D
MDA-MB-435 = test system: MDA-MB-435

Measured: GI50

Cc1ccc(C)c(C(=O)CC2OC(O)C(Cl)C2Cl)c1 (stereo unspecified)
inactive: M14 > 100 µM | SNB-75 52 µM | SR 44 µM | HOP-62 > 100 µM | DLD-1 17.1 µM | KM12 > 100 µM | NCI-H226 > 100 µM | DMS-273 63.1 µM | NCI-H522 15.6 µM | ACHN 42.5 µM | Malme-3M 67.5 µM | HOP-92 30.6 µM

COc1ccc2c(c1O)-c1cc(O)cc3c1[C@@H](C2)N(C)CC3
inactive: MCF7 61.8 µM | SNB-75 60.7 µM | HOP-62 32.9 µM | DLD-1 43.2 µM | NCI/ADR-RES 75.9 µM | KM12 54.8 µM | NCI-H226 47 µM | DMS-273 65.8 µM | NCI-H522 121 µM | Malme-3M 64 µM | HOP-92 19 µM

c1ccc2c(c1)OCCc1cn[nH]c1-2
inactive: MCF7 > 100 µM | SNB-75 42 µM | HOP-62 > 61.7 µM | DLD-1 > 100 µM | NCI/ADR-RES > 100 µM | KM12 > 100 µM | NCI-H226 22.2 µM | DMS-273 > 100 µM | NCI-H522 > 100 µM | Malme-3M > 100 µM | HOP-92 > 42.3 µM

Cn1c(=O)[nH]c2nncnc2c1=O
inactive: MCF7 212 µM | SNB-75 21 µM | HOP-62 34.4 µM | DLD-1 384 µM | NCI/ADR-RES 217 µM | KM12 23.8 µM | NCI-H226 5.83 µM | DMS-273 21.6 µM | NCI-H522 157 µM | Malme-3M 44.7 µM | HOP-92 21.3 µM

CNC(=O)SCC(N)C(=O)O (stereo unspecified)
inactive: MCF7 > 100 µM | SNB-75 > 100 µM | HOP-62 > 100 µM | DLD-1 > 100 µM | NCI/ADR-RES > 100 µM | KM12 > 100 µM | NCI-H226 > 84.7 µM | DMS-273 71.4 µM | NCI-H522 > 67.9 µM | Malme-3M > 100 µM | HOP-92 51.9 µM

Cc1cccc2nc3cccc(C(=O)NCCN(C)C)c3nc12
active: M14 0.766 µM | 786-0 0.647 µM | SNB-75 1.08 µM | HOP-62 0.247 µM | DLD-1 0.444 µM | KM12 0.641 µM | NCI-H226 1.04 µM | DMS-273 0.42 µM | ACHN 0.41 µM | HOP-92 0.605 µM

CC(=O)c1c(P(=O)(OC(C)C)OC(C)C)nn(-c2ccc([N+](=O)[O-])cc2)c1C
inactive: M14 > 100 µM | SNB-75 > 10 µM | SR > 100 µM | HOP-62 > 100 µM | DLD-1 > 100 µM | KM12 > 100 µM | DMS-273 > 100 µM | NCI-H522 > 100 µM | ACHN > 100 µM | Malme-3M > 100 µM | HOP-92 > 100 µM

O=C1c2cccc3cc4ccccc4c(c23)C(=O)N1CCNCCNCCNCCN1C(=O)c2cccc3cc4ccccc4c(c23)C1=O
active: MCF7 < 0.01 µM | SNB-75 < 0.0141 µM | DLD-1 < 0.014 µM | NCI/ADR-RES < 0.0136 µM | DMS-273 < 0.01 µM | Malme-3M 0.126 µM | HOP-92 0.0111 µM
inactive: NCI-H226 33.6 µM

NC1=NS(=O)(=O)Nc2[nH]c(-c3ccccc3)nc21
inactive: M14 > 100 µM | 786-0 > 100 µM | SNB-75 > 100 µM | SR > 100 µM | DLD-1 > 100 µM | KM12 > 100 µM | NCI-H226 > 100 µM | DMS-273 > 100 µM | NCI-H522 > 100 µM | ACHN > 100 µM | Malme-3M > 100 µM | HOP-92 > 100 µM

O=C1C=C(Nc2ccc(Br)cc2)c2ccccc2C1=O
inactive: M14 14.9 µM | 786-0 14.6 µM | SNB-75 11 µM | SR 2.54 µM | HOP-62 16.9 µM | KM12 14.1 µM | NCI-H226 18.7 µM | DMS-273 12.2 µM | NCI-H522 11.3 µM | ACHN 4.75 µM | Malme-3M 15.1 µM

O=C(c1ccccc1)c1ccc2n[se]nc2c1
inactive: M14 19.1 µM | SNB-75 18.4 µM | DLD-1 50 µM | KM12 4.54 µM | DMS-273 10.3 µM | NCI-H522 25.2 µM | ACHN 7.03 µM | Malme-3M > 100 µM

C[N+](C)(C)CC1CCCC(C[N+](C)(C)C)C1=O (stereo unspecified)
active: M14 0.879 µM | MCF7 0.506 µM | 786-0 0.661 µM | SR 0.158 µM | DLD-1 0.105 µM | T47D 1.09 µM | NCI-H522 0.447 µM | ACHN 0.845 µM | Malme-3M 0.212 µM | HOP-92 0.441 µM
inactive: PC-3 4.61 µM | MDA-MB-231 2.01 µM | MDA-N 3.49 µM | SNB-75 4.7 µM | HOP-62 23.3 µM | NCI/ADR-RES 2.59 µM | KM12 4.66 µM | NCI-H226 15.6 µM | DMS-273 3.4 µM | MDA-MB-435 1.8 µM

Source: ChEMBL document CHEMBL1201862, “PubChem BioAssay data set” (2004)
